Read-outs that look alike come from different tables or passages of the source.
Legend:
HDAC1 = HDAC1 (Homo sapiens (Human), UniProt Q13547); assay: Inhibitory activity on HDAC1 (fluorescence enzyme assay); conditions: read-out: IC50 HDAC1; mean of three independent experiments
cell death = assay: NMN reversal of cell death caused by compounds (FIG. 4); type: cell-based; conditions: NMN is nicotinamide mononucleotide
[1] = system: leukemia cell line KASUMI-1; assay: GI50 and LC50 by NCI method, KASUMI-1; type: cell-based; conditions: Homo sapiens, 48 hours, Cell Titer-Blue
Protocol: (§1) The median growth inhibitory concentration (GI50) and median lethal concentration (LC50) were determined by NCI method. Leukemia cell strains MV4-11, HL60, PL21, KASUMI-1, MONO-MAC-1 and NB-4 were cultured in an Iscove's Modified Dulbecco Medium (IMDM) containing 10% fetal bovine serum, were inoculated into a 96-well cell culture plate at a density of 10,000 cells/100 μL and cultured overnight. 6 wells were selected as Tz wells, 0.125 mg/mL Cell Titer-Blue dye was added, and the cells were cultured for 4 hours and then the fluorescence intensity at […] (excitation wavelength/emission wavelength) was read. Compounds of different concentrations were added to the remaining wells, and a 100% control group was set. After 48 hours of cultivation, 0.125 mg/mL Cell Titer-Blue dye was added and the fluorescence intensity at […] was read after 4 hours. The fluorescence intensity of the dosing group was represented by Ti, the fluorescence intensity of the 100% control group was represented by C, and the fluorescence intensity before dosing was represented by Tz.
(§2) If Ti≥Tz, the formula [(Ti−Tz)/(C−Tz)]×100 was used.
(§3) If Ti<Tz, the formula [(Ti−Tz)/Tz]×100 was used.
(§4) The GI50 and LC50 values of some compounds on leukemia cell strains MV4-11, HL60, PL21, KASUMI-1, MONO-MAC-1 and NB-4 are shown in FIG. 1, Table 3, FIG. 2, and Table 4.

[2] = system: leukemia cell line MONO-MAC-1; assay: GI50 and LC50 by NCI method, MONO-MAC-1; type: cell-based; conditions: 48 hours, Cell Titer-Blue
Protocol: as §1, §2, §3, §4

leukemia cell line PL21 = assay: GI50 and LC50 by NCI method, PL21; type: cell-based; conditions: PL-21; 48 hours, Cell Titer-Blue
Protocol: as §1, §2, §3, §4

leukemia cell line NB-4 = assay: GI50 and LC50 by NCI method, NB-4; type: cell-based; conditions: 48 hours, Cell Titer-Blue; for GI50: read-out: NB4 GI50; for LC50 (median lethal concentration): read-out: NB4 LC50
Protocol: as §1, §2, §3, §4

[3] = system: acute myelogenous leukemia cells HL60; assay: GI50 and LC50 by NCI method, HL60; type: cell-based; conditions: for CC50 / GI50: Homo sapiens, HL-60, 48 hours, Cell Titer-Blue
Protocol: as §1, §2, §3, §4

HDAC2 = HDAC2 (Homo sapiens (Human), UniProt Q92769); assay: Inhibitory activity on HDAC2 (fluorescence enzyme assay); conditions: read-out: IC50 HDAC2; mean of three independent experiments
Sequence of HDAC2 (Q92769 whole entry, species assumed): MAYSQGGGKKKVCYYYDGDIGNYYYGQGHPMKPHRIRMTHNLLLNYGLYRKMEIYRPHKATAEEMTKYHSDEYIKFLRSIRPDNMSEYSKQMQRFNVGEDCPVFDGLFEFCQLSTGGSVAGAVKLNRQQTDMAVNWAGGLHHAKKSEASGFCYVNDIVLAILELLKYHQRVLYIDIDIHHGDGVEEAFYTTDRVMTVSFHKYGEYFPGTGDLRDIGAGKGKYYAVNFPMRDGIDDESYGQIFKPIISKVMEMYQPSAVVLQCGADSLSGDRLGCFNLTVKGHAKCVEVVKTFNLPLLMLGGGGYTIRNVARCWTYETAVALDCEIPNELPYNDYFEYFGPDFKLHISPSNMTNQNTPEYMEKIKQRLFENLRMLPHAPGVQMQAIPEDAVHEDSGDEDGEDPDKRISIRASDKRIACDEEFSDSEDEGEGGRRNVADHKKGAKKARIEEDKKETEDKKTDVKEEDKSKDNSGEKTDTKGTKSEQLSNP

[4] = system: acute myelogenous leukemia cells MV4-11; assay: GI50 and LC50 by NCI method, MV4-11; type: cell-based; conditions: Homo sapiens, 48 hours, Cell Titer-Blue
Protocol: as §1, §2, §3, §4

HDAC3 = HDAC3 (Homo sapiens (Human), UniProt O15379); assay: Inhibitory activity on HDAC3 (fluorescence enzyme assay); conditions: read-out: IC50 HDAC3; mean of three independent experiments
Sequence of HDAC3 (O15379 whole entry, species assumed): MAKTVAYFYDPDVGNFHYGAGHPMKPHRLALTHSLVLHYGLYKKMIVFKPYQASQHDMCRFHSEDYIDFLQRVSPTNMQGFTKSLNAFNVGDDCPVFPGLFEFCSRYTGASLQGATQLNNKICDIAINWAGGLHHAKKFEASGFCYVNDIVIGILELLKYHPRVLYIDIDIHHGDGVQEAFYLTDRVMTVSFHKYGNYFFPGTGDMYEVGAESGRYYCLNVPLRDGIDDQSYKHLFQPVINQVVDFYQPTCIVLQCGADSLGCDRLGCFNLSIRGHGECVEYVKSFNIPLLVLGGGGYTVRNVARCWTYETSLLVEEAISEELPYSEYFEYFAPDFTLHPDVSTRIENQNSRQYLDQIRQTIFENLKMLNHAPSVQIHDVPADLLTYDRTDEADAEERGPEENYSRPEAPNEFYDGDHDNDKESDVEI
Sequence of HDAC3 (Q9Y618 395-489 partner, species assumed): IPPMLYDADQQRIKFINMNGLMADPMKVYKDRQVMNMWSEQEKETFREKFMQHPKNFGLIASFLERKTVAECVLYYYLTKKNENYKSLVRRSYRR

NAMPT = NAMPT (Homo sapiens (Human), UniProt P43490); assay: Inhibitory activity on NAMPT; type: biochemical
Sequence of NAMPT (P43490 whole entry, species assumed): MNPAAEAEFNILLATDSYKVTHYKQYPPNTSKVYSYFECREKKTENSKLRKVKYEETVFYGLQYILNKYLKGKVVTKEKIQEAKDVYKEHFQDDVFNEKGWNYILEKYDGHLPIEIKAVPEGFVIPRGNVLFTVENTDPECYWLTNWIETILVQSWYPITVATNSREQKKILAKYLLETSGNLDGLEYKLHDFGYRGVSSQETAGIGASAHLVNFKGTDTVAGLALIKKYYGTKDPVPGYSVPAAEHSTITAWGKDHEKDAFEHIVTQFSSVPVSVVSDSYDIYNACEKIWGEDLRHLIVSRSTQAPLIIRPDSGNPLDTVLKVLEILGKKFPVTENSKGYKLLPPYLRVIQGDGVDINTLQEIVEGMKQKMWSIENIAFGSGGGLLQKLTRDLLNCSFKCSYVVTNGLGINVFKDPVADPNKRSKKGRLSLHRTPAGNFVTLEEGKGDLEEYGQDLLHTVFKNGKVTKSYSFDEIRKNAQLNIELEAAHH

MV4-11 tumor = assay: In vivo anti-leukemia activity, MV4-11 tumor bearing model; conditions: MV4-11 tumor bearing nude mice; 4 mg/kg/d, day 23; panobinostat intraperitoneal
[5] = Pharmacokinetic properties in mice; type: in vivo; conditions: for F: po 20 mg/kg vs iv 5 mg/kg; for half-life: read-out: t½ (converted)
HCT116 tumor = assay: In vivo anti-colon cancer activity, HCT116 tumor bearing model; parameters: species or system nude mice
[6] = po 50 mg/kg, literature (BMC 2007, 21, 184-189); cited from earlier work
[7] = mouse, plasma, po 20 mg/kg single dose
[8] = mouse, plasma, po 20 mg/kg single dose, read-out: Cmax
[9] = HCT116 tumor bearing nude mice, LEE17 orally 8 mg/kg/d

Sequence of HDAC1 (Q13547 whole entry, species assumed): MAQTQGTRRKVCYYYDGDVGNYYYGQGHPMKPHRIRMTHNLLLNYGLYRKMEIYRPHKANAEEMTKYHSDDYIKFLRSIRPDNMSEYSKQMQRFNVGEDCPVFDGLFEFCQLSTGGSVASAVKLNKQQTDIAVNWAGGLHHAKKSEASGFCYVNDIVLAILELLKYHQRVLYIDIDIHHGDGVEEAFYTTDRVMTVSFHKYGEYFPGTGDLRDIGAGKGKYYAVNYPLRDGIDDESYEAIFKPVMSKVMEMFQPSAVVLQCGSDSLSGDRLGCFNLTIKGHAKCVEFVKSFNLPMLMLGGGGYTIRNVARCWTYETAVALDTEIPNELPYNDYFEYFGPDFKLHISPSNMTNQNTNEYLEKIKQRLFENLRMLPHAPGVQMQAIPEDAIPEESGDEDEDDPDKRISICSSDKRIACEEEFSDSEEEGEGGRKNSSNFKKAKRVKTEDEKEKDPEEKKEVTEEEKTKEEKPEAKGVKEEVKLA

CCCNNC(=O)c1ccc(CNC(=O)/C=C/c2cccnc2)cc1 [LEE12, (E)-N-(4-(2-propylhydrazino-1-carbonyl)benzyl)-3-(pyridin-3-yl) acrylamide]
IC50 (HDAC1): 25.1 nM | effect of NMN on cell death caused by the compound (cell death): reversal effect | GI50 [1]: 13.5 nM | LC50 [1]: 285 nM | CC50 [2]: 9030 nM | GI50 [2]: 73.7 nM | GI50 (leukemia cell line PL21): 259 nM | LC50 (median lethal concentration) (leukemia cell line PL21): 3820 nM | GI50 (leukemia cell line NB-4): 22.8 nM | LC50 (median lethal concentration) (leukemia cell line NB-4): 2300 nM | LC50 values in p53-null cell strain HL60 (in words) [3]: nanomolar level | CC50 [3]: 591 nM | GI50 [3]: 42.1 nM | IC50 (HDAC2): 141 nM | GI50 [4]: 38.3 nM | LC50 (median lethal concentration) [4]: 218 nM | IC50 (HDAC3): 3.12 nM | inhibitory activity against NAMPT (in words) (NAMPT): micromolar level | IC50 (NAMPT; mean of three independent experiments): 6570 nM

CCCNNC(=O)c1ccc(CNC(=O)c2cc3ccccc3[nH]2)cc1 [LEE15, N-(4-(2-propylhydrazino-1-carbonyl)benzyl)-1H-indole-2-carboxyamide]
IC50 (HDAC1): 3.52 nM | GI50 [1]: 17.5 nM | LC50 [1]: 8410 nM | CC50 [2]: > 10000 nM | GI50 [2]: 17.9 nM | GI50 (leukemia cell line PL21): 65.5 nM | LC50 (median lethal concentration) (leukemia cell line PL21): > 10000 nM | Relative tumor proliferation rate (T/C %) (MV4-11 tumor): 22.4% | Tumor inhibitory rate (TGI %) (MV4-11 tumor): 81.3% | GI50 (leukemia cell line NB-4): 31.9 nM | LC50 (median lethal concentration) (leukemia cell line NB-4): > 10000 nM | AUC(0-t) [5, 7]: 128 µg·h/mL | Tmax [5, 7]: 0.25 h | Cmax ([5]; po 20 mg/kg single dose): 38800 ng/mL | t½ ([5]; po 20 mg/kg single dose): 2.58 h | F [5]: 112% | CC50 [3]: > 10000 nM | GI50 [3]: 69.5 nM | IC50 (HDAC2): 15.1 nM | GI50 [4]: 37.2 nM | LC50 (median lethal concentration) [4]: 58.1 nM | IC50 (HDAC3): 0.383 nM

CCCNNC(=O)c1ccc(CNC(=O)c2cc3ccccc3o2)cc1 [LEE16, N-(4-(2-propylhydrazino-1-carbonyl)benzyl)benzofuran-2-carboxyamide]
IC50 (HDAC1): 3.01 nM | GI50 [1]: 15.3 nM | LC50 [1]: 5360 nM | CC50 [2]: > 10000 nM | GI50 [2]: 25.3 nM | GI50 (leukemia cell line PL21): 34.3 nM | LC50 (median lethal concentration) (leukemia cell line PL21): > 10000 nM | Relative tumor proliferation rate (T/C %) (MV4-11 tumor): 25.4% | Tumor inhibitory rate (TGI %) (MV4-11 tumor): 78.4% | GI50 (leukemia cell line NB-4): 42.3 nM | LC50 (median lethal concentration) (leukemia cell line NB-4): > 10000 nM | AUC(0-t) [5, 7]: 129 µg·h/mL | Tmax [5, 7]: 0.5 h | Cmax [5, 8]: 34400 ng/mL | half-life [5, 7]: 6.03 h | F [5]: 111% | CC50 [3]: > 10000 nM | GI50 [3]: 75.2 nM | IC50 (HDAC2): 18.5 nM | GI50 [4]: 30 nM | LC50 (median lethal concentration) [4]: 57.8 nM | IC50 (HDAC3): 0.435 nM

CCCNNC(=O)c1ccc(CNC(=O)c2cc3ccccc3s2)cc1 [LEE17, N-(4-(2-propylhydrazino-1-carbonyl)benzyl)benzo[b]thiophene-2-carboxyamide]
IC50 (HDAC1): 3.79 nM | GI50 [1]: 25.3 nM | LC50 [1]: 7320 nM | CC50 [2]: > 10000 nM | GI50 [2]: 33.2 nM | GI50 (leukemia cell line PL21): 74.3 nM | LC50 (median lethal concentration) (leukemia cell line PL21): > 10000 nM | GI50 (leukemia cell line NB-4): 51.2 nM | LC50 (median lethal concentration) (leukemia cell line NB-4): > 10000 nM | AUC(0-t) [5, 7]: 27.6 µg·h/mL | Tmax [5, 7]: 0.25 h | Cmax [5, 8]: 9460 ng/mL | half-life [5, 7]: 4.46 h | F [5]: 64.6% | CC50 [3]: > 10000 nM | GI50 [3]: 58.7 nM | change in the weight of the nude mice at the end of the experiment (in words) (HCT116 tumor; 8 mg/kg/d): no significant change | Relative tumor proliferation rate (T/C %) (HCT116 tumor; [9]): 14.8% | Tumor inhibitory rate (TGI %) (HCT116 tumor; [9]): 85.5% | Weight of nude mice at the end of the experiment (HCT116 tumor; [9]): 19.04 ± 1.31 g | IC50 (HDAC2): 16.9 nM | GI50 [4]: 20.3 nM | LC50 (median lethal concentration) [4]: 57.1 nM | IC50 (HDAC3): 0.551 nM

CCCNNC(=O)c1ccc(CNC(=O)c2cc3cnccc3[nH]2)cc1 [LEE18, N-(4-(2-propylhydrazin-1-carbonyl)benzyl)-1H-pyrrolo[3,2-c]pyridin-2-carboxamide]
effect of NMN on cell death caused by the compound (cell death): reversal effect | GI50 [1]: 21.4 nM | LC50 [1]: 503 nM | CC50 [2]: 8680 nM | GI50 [2]: 65.7 nM | GI50 (leukemia cell line PL21): 110 nM | LC50 (median lethal concentration) (leukemia cell line PL21): 2720 nM | GI50 (leukemia cell line NB-4): 16.5 nM | LC50 (median lethal concentration) (leukemia cell line NB-4): 1560 nM | LC50 values in p53-null cell strain HL60 (in words) [3]: nanomolar level | CC50 [3]: 649 nM | GI50 [3]: 51.2 nM | IC50 (HDAC2): 37.8 nM | GI50 [4]: 23.6 nM | LC50 (median lethal concentration) [4]: 58.1 nM | IC50 (HDAC3): 0.71 nM

Cc1[nH]c2ccccc2c1CCNCc1ccc(/C=C/C(=O)NO)cc1 [Panobinostat]
AUClast [6]: 0.126 µg·h/mL | Cmax [6]: 116 ng/mL | F [6]: 4.62% | t½ [6]: 2.9 h | Relative tumor proliferation rate (T/C %) (MV4-11 tumor): 72.9% | Tumor inhibitory rate (TGI %) (MV4-11 tumor): 18.3%

— patent US20240327418A1, “MULTI-TARGET INHIBITOR TARGETING HDAC AND NAD SYNTHESIS AND USE OF MULTI-TARGET INHIBITOR” (OCEAN UNIVERSITY OF CHINA, priority 2021, published 2024)
